From PubChem BioAssay AID1205 (EPA DSSTox, 2008)
Active and inactive are the calls of the source.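 Rule for the calls: active = tumour findings in long-term animal cancer tests in more than one sex, species or organ; inactive = no tumour finding and more than one negative test.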

Assay: DSSTox (CPDBAS) Carcinogenic Potency Database Summary MultiCellCall Results
Details: animal carcinogenicity bioassays, multi-cell call summary
Outline: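 ActivityScore sums 50 for multispecies, 30 for multisex and 20 for multisite positivity. Based on the most positive experiment per sex-species across standardised chronic rodent and other animal cancer tests.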

**Q.** Which outcome does the source give for O=P(OC(CCl)CCl)(OC(CCl)CCl)OC(CCl)CCl here?
**A.** active; multisite active; multisex active

**Q.** For ClCc1cccnc1, which outcome is on record?
**A.** active; multisex active; multispecies active

**Q.** With N[C@@H](Cc1cnc[nH]1)C(=O)O as the molecule, how does the outcome read?
**A.** inactive; multisex inactive

**Q.** For CCCCN(CCCC)C(=S)[S-].CCCCN(CCCC)C(=S)[S-].[Ni+2], which outcome is on record?
**A.** inactive; multisex inactive

**Q.** Which outcome does the source give for C[C@](N)(Cc1ccc(O)c(O)c1)C(=O)O here?
**A.** inactive; multisex inactive; multispecies inactive

**Q.** Which outcome does the source give for O.O=S(=O)([O-])[O-].[Mn+2] here?
**A.** inactive; multisex inactive; multispecies inactive

**Q.** Which outcome does the source give for COc1cc(-c2ccc(N=Nc3c(S(=O)(=O)O)cc4cc(S(=O)(=O)O)cc(N)c4c3O)c(OC)c2)ccc1N=Nc1c(S(=O)(=O)O)cc2cc(S(=O)(=O)O)cc(N)c2c1O here?
**A.** active; multisite active; multisex active

**Q.** With CCSCCC(N)C(=O)O (centres undefined) as the molecule, how does the outcome read?
**A.** active; multisex active; multispecies active

**Q.** Which outcome does the source give for O=NO here?
**A.** active; multisite active; multisex active

**Q.** With CC(O)CN(N=O)C(=O)NCCCl (centres undefined) as the molecule, how does the outcome read?
**A.** active; multisex active

**Q.** For N#Cc1c(Cl)c(Cl)c(Cl)c(C#N)c1Cl, which outcome is on record?
**A.** active; multisex active

**Q.** For CCC1CO1 (centres undefined), which outcome is on record?
**A.** active; multisite active

**Q.** For CS(=O)(=O)OCCCNCCCOS(C)(=O)=O, which outcome is on record?
**A.** inactive; multisex inactive; multispecies inactive

**Q.** Which outcome does the source give for CC(=O)OC[C@H]1O[C@H](O[C@]2(COC(C)=O)O[C@H](COC(=O)C(C)C)[C@@H](OC(=O)C(C)C)[C@@H]2OC(=O)C(C)C)[C@H](OC(=O)C(C)C)[C@@H](OC(=O)C(C)C)[C@@H]1OC(=O)C(C)C here?
**A.** inactive; multisex inactive; multispecies inactive

**Q.** For Cc1cc(C(C)(C)C)c(O)c(C(C)(C)C)c1, which outcome is on record?
**A.** active; multisite active

**Q.** Which outcome does the source give for Cc1ccc(S(=O)(=O)NC(=O)NN2CCCCCC2)cc1 here?
**A.** inactive; multisex inactive; multispecies inactive

**Q.** For OCN(CO)c1nc(N(CO)CO)nc(N(CO)CO)n1, which outcome is on record?
**A.** active; multisite active

**Q.** With OCC(O)CCl (centres undefined) as the molecule, how does the outcome read?
**A.** inactive; multisex inactive

**Q.** Which outcome does the source give for Cc1ccc2c(-c3cccc(O)c3)nc(=O)n(C(C)C)c2c1 here?
**A.** inactive; multisex inactive; multispecies inactive

**Q.** For CCOC(=O)C1OC1(C)c1ccccc1 (centres undefined), which outcome is on record?
**A.** inactive; multisex inactive

**Q.** For C/C=C/c1ccc(OC)cc1, which outcome is on record?
**A.** inactive; multisex inactive

**Q.** With Nc1ccc([N+](=O)[O-])cc1N as the molecule, how does the outcome read?
**A.** inactive; multisex inactive; multispecies inactive

**Q.** Which outcome does the source give for CN(CCCC(=O)c1cccnc1)N=O here?
**A.** active; multisite active

**Q.** Which outcome does the source give for CNCCC(Oc1ccc(C(F)(F)F)cc1)c1ccccc1 (centres undefined) here?
**A.** inactive; multisex inactive; multispecies inactive

**Q.** Which outcome does the source give for OB(O)O here?
**A.** inactive; multisex inactive

**Q.** With COC(=O)C1=C(C)NC(C)=C(C(=O)OCC(C)(C)CN(C)Cc2ccccc2)C1c1cc([N+](=O)[O-])ccc1F (centres undefined) as the molecule, how does the outcome read?
**A.** inactive; multisex inactive

**Q.** For C=CC=O, which outcome is on record?
**A.** inactive; multisex inactive; multispecies inactive

**Q.** With CCN(CC)N=O as the molecule, how does the outcome read?
**A.** active; multisite active; multisex active; multispecies active

**Q.** With O=C(Nc1cccc2c(=O)cc(-c3nn[nH]n3)oc12)c1ccc(OCCCCc2ccccc2)cc1 as the molecule, how does the outcome read?
**A.** inactive; multisex inactive

**Q.** Which outcome does the source give for CCNc1nc(Cl)nc(NC(C)C)n1 here?
**A.** active; multisite active; multisex active

**Q.** For N[C@@H](Cc1c[nH]c2ccccc12)C(=O)O, which outcome is on record?
**A.** inactive; multisex inactive; multispecies inactive

**Q.** Which outcome does the source give for CC(C)=CCC/C(C)=C/C=O here?
**A.** inactive; multisex inactive; multispecies inactive

**Q.** With C/C=C/C=C/C=O as the molecule, how does the outcome read?
**A.** active; multisex active; multispecies active

**Q.** For C=CC(N)=O, which outcome is on record?
**A.** active; multisite active; multisex active

**Q.** For CN(C)CCOC(c1ccccc1)c1ccccc1, which outcome is on record?
**A.** inactive; multisex inactive; multispecies inactive

**Q.** Which outcome does the source give for CC(C)OC(=O)Nc1ccccc1 here?
**A.** inactive; multisex inactive; multispecies inactive

**Q.** Which outcome does the source give for c1ccc2occc2c1 here?
**A.** active; multisite active; multisex active; multispecies active

**Q.** Which outcome does the source give for Nc1ccc(-c2ccccc2)cc1 here?
**A.** active; multisite active; multisex active

**Q.** Which outcome does the source give for COc1ccc(C)cc1N here?
**A.** active; multisite active; multisex active; multispecies active

**Q.** With O=C1c2cccc(O)c2C(=O)c2c(O)cccc21 as the molecule, how does the outcome read?
**A.** active; multisite active; multispecies active

**Q.** Which outcome does the source give for CC(O)CN(C)N=O (centres undefined) here?
**A.** active; multisite active; multisex active

**Q.** Which outcome does the source give for O=C1CCCCCN1 here?
**A.** inactive; multisex inactive; multispecies inactive

**Q.** With CCCCN(CCCC)N=O as the molecule, how does the outcome read?
**A.** active; multisite active; multispecies active

**Q.** With O=c1[nH]c(=O)n(C2CCCO2)cc1F (centres undefined) as the molecule, how does the outcome read?
**A.** inactive; multisex inactive; multispecies inactive

**Q.** Which outcome does the source give for BrCCBr here?
**A.** active; multisite active; multisex active; multispecies active

**Q.** With Nc1ccc(N)c2c1C(=O)c1c(N)ccc(N)c1C2=O as the molecule, how does the outcome read?
**A.** active; multisex active

**Q.** Which outcome does the source give for O=C(O)c1cc(N=Nc2ccc(S(=O)(=O)Nc3ccccn3)cc2)ccc1O here?
**A.** active; multisite active; multisex active; multispecies active

**Q.** Which outcome does the source give for Nc1ccccc1C(=O)O here?
**A.** inactive; multisex inactive; multispecies inactive

**Q.** With NC(=O)/C(=C\c1ccc([N+](=O)[O-])o1)c1ccco1 as the molecule, how does the outcome read?
**A.** active; multisite active; multisex active; multispecies active

**Q.** Which outcome does the source give for COc1ccc(N)c(C)c1 here?
**A.** active; multisex active

**Q.** With FC(F)(Cl)C(F)(Cl)Cl as the molecule, how does the outcome read?
**A.** inactive; multisex inactive

**Q.** Which outcome does the source give for Cc1cc(Cl)ccc1N here?
**A.** active; multisex active

**Q.** Which outcome does the source give for CC(=O)Nc1ccc(OCC(O)CNC(C)C)cc1 (centres undefined) here?
**A.** inactive; multisex inactive; multispecies inactive

**Q.** With CC(C)C/C=N/N(C)C=O as the molecule, how does the outcome read?
**A.** active; multisite active; multisex active

**Q.** With CCN(CC)C(=S)S as the molecule, how does the outcome read?
**A.** inactive; multisex inactive; multispecies inactive

**Q.** With CCOP(=S)(OCC)Oc1ccc2c(C)c(Cl)c(=O)oc2c1 as the molecule, how does the outcome read?
**A.** inactive; multisex inactive; multispecies inactive

**Q.** For Cc1ccc(Cl)cc1N, which outcome is on record?
**A.** active; multisite active; multisex active

**Q.** Which outcome does the source give for Cc1ccc(N=C=O)cc1N=C=O here?
**A.** active; multisite active; multisex active; multispecies active

**Q.** Which outcome does the source give for F here?
**A.** inactive; multisex inactive; multispecies inactive

**Q.** Which outcome does the source give for ClCC1CO1 (centres undefined) here?
**A.** active; multisex active

**Q.** With CN(C)C(=S)[S][Bi]([S]C(=S)N(C)C)[S]C(=S)N(C)C as the molecule, how does the outcome read?
**A.** inactive; multisex inactive

**Q.** For CN(C)CCOc1ccc(/C(=C(/CCCl)c2ccccc2)c2ccccc2)cc1, which outcome is on record?
**A.** inactive; multisex inactive

**Q.** With Cc1cc(N=Nc2c(O)ccc3ccccc23)c(S(=O)(=O)O)cc1Cl as the molecule, how does the outcome read?
**A.** active; multisite active

**Q.** For O=[N+]([O-])c1ccccc1, which outcome is on record?
**A.** active; multisite active; multisex active; multispecies active

**Q.** Which outcome does the source give for ClCC(Br)CBr (centres undefined) here?
**A.** active; multisite active; multisex active; multispecies active

**Q.** With COc1cc(/C=C/C(=O)O[C@H]2CC[C@]34C[C@]35CC[C@]3(C)[C@@H]([C@H](C)CCC=C(C)C)CC[C@@]3(C)[C@@H]5CC[C@H]4C2(C)C)ccc1O as the molecule, how does the outcome read?
**A.** inactive; multisex inactive; multispecies inactive

**Q.** Which outcome does the source give for Cn1cc(C(=O)[C@@H]2CCc3nc[nH]c3C2)c2ccccc21 here?
**A.** inactive; multisex inactive; multispecies inactive

**Q.** Which outcome does the source give for Nc1cc(Cl)c(N)c(Cl)c1 here?
**A.** active; multisex active

**Q.** With C=C(C)[C@H]1Cc2c(ccc3c2O[C@@H]2COc4cc(OC)c(OC)cc4[C@@H]2C3=O)O1 as the molecule, how does the outcome read?
**A.** inactive; multisex inactive; multispecies inactive

**Q.** For Nc1ccccc1, which outcome is on record?
**A.** active; multisite active; multisex active

**Q.** For ClC1=C(Cl)C2(Cl)C3C(Cl)C=CC3C1(Cl)C2(Cl)Cl (centres undefined), which outcome is on record?
**A.** active; multisex active

**Q.** Which outcome does the source give for Nc1ncc([N+](=O)[O-])s1 here?
**A.** active; multisite active

**Q.** For C[C@]12CC[C@@H]3c4ccc(OC(=O)Cc5ccc(N(CCCl)CCCl)cc5)cc4CC[C@H]3[C@@H]1CC[C@@H]2OC(=O)Cc1ccc(N(CCCl)CCCl)cc1, which outcome is on record?
**A.** active; multisite active; multisex active

**Q.** Which outcome does the source give for CCCCCN(CCCCC)N=O here?
**A.** active; multisex active

**Q.** With CCN=[N+]([O-])CC as the molecule, how does the outcome read?
**A.** active; multisite active

**Q.** For N#CN=C(N)N, which outcome is on record?
**A.** inactive; multisex inactive

**Q.** With C=C1C[C@]23C[C@@]1(O)CC[C@H]2[C@@]12C=C[C@H](O)[C@@](C)(C(=O)O1)[C@H]2[C@@H]3C(=O)O as the molecule, how does the outcome read?
**A.** inactive; multisex inactive

**Q.** For CC(C)(C)c1cc(O)ccc1O, which outcome is on record?
**A.** inactive; multisex inactive

**Q.** For [Na+], which outcome is on record?
**A.** inactive; multisex inactive; multispecies inactive

**Q.** With COc1ccc(O)cc1 as the molecule, how does the outcome read?
**A.** active; multisex active

**Q.** Which outcome does the source give for C=Cc1ccc(C)cc1 here?
**A.** inactive; multisex inactive

**Q.** For CCOP(=S)(OCC)SC1OCCOC1SP(=S)(OCC)OCC (centres undefined), which outcome is on record?
**A.** inactive; multisex inactive; multispecies inactive

**Q.** With Oc1ccccc1-c1ccccc1 as the molecule, how does the outcome read?
**A.** active; multisite active; multisex active

**Q.** For c1ccc2[nH]c(-c3cscn3)nc2c1, which outcome is on record?
**A.** inactive; multisex inactive; multispecies inactive

**Q.** For CN(C)C(=O)Nc1ccc(Cl)cc1, which outcome is on record?
**A.** active; multisite active

**Q.** Which outcome does the source give for CC1CN(N=O)CC(C)O1 (centres undefined) here?
**A.** active; multisite active; multisex active

**Q.** Which outcome does the source give for O=C(O)Cc1cccc2ccccc12 here?
**A.** inactive; multisex inactive

**Q.** Which outcome does the source give for CCCCC(C)(O)C/C=C/[C@H]1[C@H](O)CC(=O)[C@@H]1CCCCCCC(=O)OC (some centres undefined) here?
**A.** inactive; multisex inactive; multispecies inactive

**Q.** Which outcome does the source give for CCN(CC)C(=O)/C(Cl)=C(\C)OP(=O)(OC)OC here?
**A.** inactive; multisex inactive

**Q.** With Cc1c(-c2cnccn2)ssc1=S as the molecule, how does the outcome read?
**A.** inactive; multisex inactive

**Q.** With CN1[C@@H]2CC(OC(=O)[C@@H](CO)c3ccccc3)C[C@H]1[C@@H]1O[C@@H]12 (some centres undefined) as the molecule, how does the outcome read?
**A.** inactive; multisex inactive; multispecies inactive

**Q.** For CCCCNC(=O)NS(=O)(=O)c1ccc(C)cc1, which outcome is on record?
**A.** inactive; multisex inactive; multispecies inactive

**Q.** For CNNC, which outcome is on record?
**A.** active; multisite active; multisex active; multispecies active

**Q.** For CC(Cl)CCl (centres undefined), which outcome is on record?
**A.** active; multisex active

**Q.** Which outcome does the source give for COc1cc(CNC(=O)CCCC/C=C/C(C)C)ccc1O here?
**A.** active; multisex active

**Q.** Which outcome does the source give for CC(C)(C)c1cc([N+](=O)[O-])cc([N+](=O)[O-])c1OS(C)(=O)=O here?
**A.** inactive; multisex inactive

**Q.** Which outcome does the source give for CC(=O)N(O)c1ccc2c(c1)Cc1ccccc1-2 here?
**A.** active; multisite active; multisex active; multispecies active

**Q.** With Nc1ccc(Cl)c(N)c1 as the molecule, how does the outcome read?
**A.** active; multisite active; multisex active; multispecies active

**Q.** With C=CCNN as the molecule, how does the outcome read?
**A.** active; multisite active; multisex active
